Patent US20050026899A1, “Metabolite” (priority 2003, published 2005)

Tests used:
Design in all cases: species or system Mice
[1] = target: T1, brain serotonin 5-HT2 receptor (Mus musculus, UniProt P35363); assay: binding affinity for brain serotonin 5-HT2 receptor
T1 construct: from tissue; host or cells: brain (rodent)
Description: (§1) An assessment of dopamine antagonism was made in rodent models. The methods and procedures used can be found in J. Med. Chem., 44 (3), 372-389, 2001 and are incorporated herein by reference. […] It is this combination of serotonin and dopamine receptor antagonism, with higher relative 5-HT2 to D2 receptor affinity that indicates the compound of Formula I as a potent atypical antipsychotic. J. Goldstein, Quetiapine Fumarate (Seroquel): a new atypical antipsychotic, 35(3) Drugs of Today 193-210 (1999). […] Low potency at the D2 receptor is considered advantageous since it a characteristic shared with Clozapine.

[2] = target: T2, dopamine D1 receptor (Mus musculus, UniProt Q61616); assay: binding affinity for dopamine D1 receptor; conditions: tested as the dihydrochloride salt; read-out: binding affinity for dopamine D1 receptor (K1)
T2 construct: from tissue
Description: as §1

[3] = target: T3, dopamine D2 receptor (Mus musculus, UniProt P61168); assay: binding affinity for dopamine D2 receptor
T3 construct: serotonin (5-HT2) receptors relative to dopamine (D2) receptors in the brain; from tissue; host or cells: brain (rodent)
Description: as §1

T1 sequence (P35363 whole entry): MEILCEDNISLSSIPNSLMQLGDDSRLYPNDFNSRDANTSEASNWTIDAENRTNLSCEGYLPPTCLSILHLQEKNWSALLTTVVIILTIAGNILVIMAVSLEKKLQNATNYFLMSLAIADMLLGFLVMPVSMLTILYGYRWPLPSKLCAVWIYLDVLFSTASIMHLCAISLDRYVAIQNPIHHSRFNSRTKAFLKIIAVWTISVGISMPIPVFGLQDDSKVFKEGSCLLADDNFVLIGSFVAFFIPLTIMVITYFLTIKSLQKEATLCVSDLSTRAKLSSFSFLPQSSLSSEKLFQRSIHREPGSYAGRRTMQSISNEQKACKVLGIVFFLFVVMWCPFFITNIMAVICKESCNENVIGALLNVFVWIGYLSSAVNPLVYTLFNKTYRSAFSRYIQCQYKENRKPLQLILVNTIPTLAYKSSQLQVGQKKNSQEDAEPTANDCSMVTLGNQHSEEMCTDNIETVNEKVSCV
T3 sequence (P61168 whole entry): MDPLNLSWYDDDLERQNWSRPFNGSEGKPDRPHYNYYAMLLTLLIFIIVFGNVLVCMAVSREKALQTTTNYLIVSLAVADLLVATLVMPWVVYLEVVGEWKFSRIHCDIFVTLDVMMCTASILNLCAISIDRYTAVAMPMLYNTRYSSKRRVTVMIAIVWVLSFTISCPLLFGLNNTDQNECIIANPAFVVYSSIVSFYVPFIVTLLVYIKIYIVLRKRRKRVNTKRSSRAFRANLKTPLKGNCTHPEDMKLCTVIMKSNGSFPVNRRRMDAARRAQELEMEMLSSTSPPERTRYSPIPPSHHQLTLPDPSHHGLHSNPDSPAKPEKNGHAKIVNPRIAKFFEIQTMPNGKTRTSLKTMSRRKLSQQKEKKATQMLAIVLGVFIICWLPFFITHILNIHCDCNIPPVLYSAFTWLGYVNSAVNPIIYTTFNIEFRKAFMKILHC
T2 sequence (Q61616 whole entry): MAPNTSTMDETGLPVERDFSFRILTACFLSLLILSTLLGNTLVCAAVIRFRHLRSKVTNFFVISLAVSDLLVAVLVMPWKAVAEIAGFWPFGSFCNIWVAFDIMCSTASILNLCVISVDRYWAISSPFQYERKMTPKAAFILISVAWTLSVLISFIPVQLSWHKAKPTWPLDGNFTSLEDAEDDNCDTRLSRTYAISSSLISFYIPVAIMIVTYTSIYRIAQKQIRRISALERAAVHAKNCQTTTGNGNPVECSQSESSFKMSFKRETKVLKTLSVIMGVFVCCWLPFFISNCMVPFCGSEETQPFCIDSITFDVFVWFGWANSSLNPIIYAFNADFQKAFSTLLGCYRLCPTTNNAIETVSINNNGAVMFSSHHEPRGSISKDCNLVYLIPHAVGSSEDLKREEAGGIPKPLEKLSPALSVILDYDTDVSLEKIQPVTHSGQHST

In the case of `Oc1ccc2c(c1)Sc1ccccc1C(N1CCNCC1)=N2` [Formula I, 11-piperazin-1-yldibenzo[b,f][1,4]thiazepin-7-ol], the “affinity for serotonin (5-HT2) receptors relative to dopamine (D2) receptors in the brain” value ([1]; as the dihydrochloride salt, 5-HT2 versus D2) is reported as “higher affinity”, the Ki ([1]; tested as the dihydrochloride salt, brain receptor, read-out: binding affinity for brain serotonin 5-HT2 receptor (K1)) is reported as 0.0065 µM and the Ki [2] is reported as 0.288 µM. For the same compound, the “affinity for D2 (in words)” value [3] was “moderate affinity” and the Ki ([3]; tested as the dihydrochloride salt, read-out: binding affinity for dopamine D2 receptor (K1)) was 0.035 µM.
